Reference: ChEMBL document CHEMBL1275509, “Plasmid-encoded carbapenem-hydrolyzing beta-lactamase OXA-48 in an imipenem-susceptible Klebsiella pneumoniae strain from Belgium” (2008)
Values after ≈ are worked out from the molar mass of the structure shown.

Assays:
Escherichia coli [1] = assay: Antibacterial activity against Escherichia coli J53 harboring plasmid pA-1carrying beta-lactamase OXA-48 by Etest method; type: functional
Escherichia coli [2] = assay: Antibacterial activity against Escherichia coli J53 by Etest method; type: functional
Escherichia coli [3] = assay: Antibacterial activity against Escherichia coli J53 harboring plasmid pA-1carrying beta-lactamase OXA-48 by Etest method in presence of beta-lactamase inhibitor clavulanic acid; type: functional
Klebsiella pneumoniae [4] = assay: Antibacterial activity against Klebsiella pneumoniae 11978 harboring plasmid pA-1carrying beta-lactamase OXA-48 by Etest method in presence of beta-lactamase inhibitor clavulanic acid; type: functional
Klebsiella pneumoniae [5] = assay: Antibacterial activity against human urinary Klebsiella pneumoniae UCL-1 harboring plasmid-encoded beta-lactamase OXA-48 by Etest method in presence of beta-lactamase inhibitor clavulanic acid; type: functional; conditions: UCL-1, Urine
Escherichia coli [6] = assay: Antibacterial activity against Escherichia coli J53 by Etest method in presence of beta-lactamase inhibitor clavulanic acid; type: functional
Klebsiella pneumoniae [7] = assay: Antibacterial activity against Klebsiella pneumoniae 11978 harboring plasmid pA-1carrying beta-lactamase OXA-48 by Etest method; type: functional
Klebsiella pneumoniae [8] = assay: Antibacterial activity against human urinary Klebsiella pneumoniae UCL-1 harboring plasmid-encoded beta-lactamase OXA-48 by Etest method; type: functional; conditions: UCL-1, Urine
Escherichia coli [9] = assay: Antibacterial activity against Escherichia coli J53 harboring plasmid-encoded beta-lactamase OXA-48 by Etest method in presence of beta-lactamase inhibitor clavulanic acid; type: functional
Escherichia coli [10] = assay: Antibacterial activity against Escherichia coli J53 harboring plasmid-encoded beta-lactamase OXA-48 by Etest method; type: functional
Klebsiella pneumoniae [11] = assay: Antibacterial activity against amoxicillin and amoxicillin-clavulanate resistant Klebsiella pneumoniae UCL-1 assessed as zone of inhibition by disk diffusion method; type: functional
[12] = target: Beta-lactamase OXA-48 (Klebsiella pneumoniae) (UniProt Q6XEC0); assay: Compound hydrolyzing activity of Klebsiella pneumoniae beta-lactamase OXA-48; conditions: UCL-1
Beta-lactamase OXA-48 (Klebsiella pneumoniae), sequence (Q6XEC0 whole entry): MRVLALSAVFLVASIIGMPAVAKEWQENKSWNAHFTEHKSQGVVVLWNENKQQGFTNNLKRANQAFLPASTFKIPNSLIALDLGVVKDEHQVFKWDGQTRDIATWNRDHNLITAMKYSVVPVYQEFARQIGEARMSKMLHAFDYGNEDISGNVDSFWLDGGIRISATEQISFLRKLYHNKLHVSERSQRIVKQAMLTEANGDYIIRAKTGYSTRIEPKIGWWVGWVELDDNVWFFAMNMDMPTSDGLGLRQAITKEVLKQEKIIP

Klebsiella pneumoniae [13] = assay: Antibacterial activity against human urinary Klebsiella pneumoniae UCL-1 harboring plasmid-encoded beta-lactamase OXA-48 by Etest method in presence of beta-lactamase inhibitor Tazobactam; type: functional; conditions: UCL-1, Urine
Escherichia coli [14] = assay: Antibacterial activity against Escherichia coli J53 harboring plasmid pA-1carrying beta-lactamase OXA-48 by Etest method in presence of beta-lactamase inhibitor Tazobactam; type: functional
Escherichia coli [15] = assay: Antibacterial activity against Escherichia coli J53 by Etest method in presence of beta-lactamase inhibitor Tazobactam; type: functional
Escherichia coli [16] = assay: Antibacterial activity against Escherichia coli J53 harboring plasmid-encoded beta-lactamase OXA-48 by Etest method in presence of beta-lactamase inhibitor Tazobactam; type: functional
Klebsiella pneumoniae [17] = assay: Antibacterial activity against Klebsiella pneumoniae 11978 harboring plasmid pA-1carrying beta-lactamase OXA-48 by Etest method in presence of beta-lactamase inhibitor Tazobactam; type: functional

SMILES | MIC (Escherichia coli [1]) | MIC (Escherichia coli [2]) | MIC (Escherichia coli [3]) | MIC (Klebsiella pneumoniae [4]) | MIC (Klebsiella pneumoniae [5]) | MIC (Escherichia coli [6]) | MIC (Klebsiella pneumoniae [7]) | MIC (Klebsiella pneumoniae [8]) | MIC (Escherichia coli [9]) | MIC (Escherichia coli [10]) | inhibition zone (IZ) (Klebsiella pneumoniae [11]) | Activity [12] | MIC (Klebsiella pneumoniae [13]) | MIC (Escherichia coli [14]) | MIC (Escherichia coli [15]) | MIC (Escherichia coli [16]) | MIC (Klebsiella pneumoniae [17])
CC1(C)S[C@@H]2[C@H](NC(=O)[C@H](N)c3ccc(O)cc3)C(=O)N2[C@H]1C(=O)O [AMOXICILLIN] | > 256 µg/mL | 4 µg/mL (≈ 10.9 µM) | > 256 µg/mL | > 256 µg/mL | > 256 µg/mL | 4 µg/mL | > 256 µg/mL | > 256 µg/mL | > 256 µg/mL | > 256 µg/mL | – | – | – | – | – | – | –
C[C@H]1[C@H](NC(=O)/C(=N\OC(C)(C)C(=O)O)c2csc(N)n2)C(=O)N1S(=O)(=O)O [AZTREONAM] | 0.064 µg/mL (≈ 0.147 µM) | – | – | – | – | – | > 256 µg/mL | 0.064 µg/mL (≈ 0.147 µM) | – | 0.064 µg/mL (≈ 0.147 µM) | – | – | – | – | – | – | –
CO/N=C(\C(=O)N[C@@H]1C(=O)N2C(C(=O)[O-])=C(C[N+]3(C)CCCC3)CS[C@H]12)c1csc(N)n1 [CEFEPIME] | 0.125 µg/mL (≈ 0.26 µM) | 0.03 µg/mL (≈ 0.0624 µM) | – | – | – | – | 32 µg/mL (≈ 66.6 µM) | 0.125 µg/mL (≈ 0.26 µM) | – | 0.125 µg/mL (≈ 0.26 µM) | – | – | – | – | – | – | –
CO/N=C(\C(=O)N[C@@H]1C(=O)N2C(C(=O)O)=C(COC(C)=O)CS[C@H]12)c1csc(N)n1 [CEFOTAXIME] | 0.38 µg/mL (≈ 0.834 µM) | 0.06 µg/mL (≈ 0.132 µM) | – | – | – | – | 64 µg/mL (≈ 141 µM) | 0.125 µg/mL (≈ 0.274 µM) | – | 0.38 µg/mL (≈ 0.834 µM) | – | – | – | – | – | – | –
CO[C@@]1(NC(=O)Cc2cccs2)C(=O)N2C(C(=O)O)=C(COC(N)=O)CS[C@@H]21 [CEFOXITIN] | 2 µg/mL (≈ 4.68 µM) | 2 µg/mL (≈ 4.68 µM) | – | – | – | – | 128 µg/mL (≈ 299 µM) | 2 µg/mL (≈ 4.68 µM) | – | 2 µg/mL (≈ 4.68 µM) | – | – | – | – | – | – | –
CC(C)(O/N=C(\C(=O)N[C@@H]1C(=O)N2C(C(=O)[O-])=C(C[n+]3ccccc3)CS[C@H]12)c1csc(N)n1)C(=O)O [CEFTAZIDIME] | 0.75 µg/mL (≈ 1.37 µM) | 0.06 µg/mL (≈ 0.11 µM) | – | – | – | – | > 256 µg/mL | 1 µg/mL (≈ 1.83 µM) | – | 0.75 µg/mL (≈ 1.37 µM) | – | – | – | – | – | – | –
CC(=O)OCC1=C(C(=O)O)N2C(=O)[C@@H](NC(=O)Cc3cccs3)[C@H]2SC1 [CEPHALOTHIN] | 8 µg/mL (≈ 20.2 µM) | 4 µg/mL (≈ 10.1 µM) | – | – | – | – | > 256 µg/mL | 16 µg/mL (≈ 40.4 µM) | – | 8 µg/mL (≈ 20.2 µM) | – | – | – | – | – | – | –
C[C@@H](O)[C@H]1C(=O)N2C(C(=O)O)=C(S[C@@H]3CN[C@H](C(=O)Nc4cccc(C(=O)O)c4)C3)[C@H](C)[C@H]12 [ERTAPENEM] | 2 µg/mL (≈ 4.21 µM) | 0.03 µg/mL (≈ 0.0631 µM) | – | – | – | – | > 32 µg/mL | 4 µg/mL (≈ 8.41 µM) | – | 2 µg/mL (≈ 4.21 µM) | 18 mm | 0.04 µmol/min/mg | – | – | – | – | –
C[C@@H](O)[C@H]1C(=O)N2C(C(=O)O)=C(SCCNC=N)C[C@H]12 [IMIPENEM ANHYDROUS] | 1 µg/mL (≈ 3.34 µM) | – | – | – | – | – | 64 µg/mL (≈ 214 µM) | 0.75 µg/mL (≈ 2.51 µM) | – | 0.75 µg/mL (≈ 2.51 µM) | 22 mm | 1.6 µmol/min/mg | – | – | – | – | –
C[C@@H](O)[C@H]1C(=O)N2C(C(=O)O)=C(S[C@@H]3CN[C@H](C(=O)N(C)C)C3)[C@H](C)[C@H]12 [MEROPENEM] | 0.5 µg/mL (≈ 1.3 µM) | 0.03 µg/mL (≈ 0.0782 µM) | – | – | – | – | 64 µg/mL (≈ 167 µM) | 0.5 µg/mL (≈ 1.3 µM) | – | 0.5 µg/mL (≈ 1.3 µM) | 23 mm | 0.05 µmol/min/mg | – | – | – | – | –
CCN1CCN(C(=O)N[C@@H](C(=O)N[C@@H]2C(=O)N3[C@@H]2SC(C)(C)[C@@H]3C(=O)O)c2ccccc2)C(=O)C1=O [PIPERACILLIN] | 128 µg/mL (≈ 247 µM) | 1 µg/mL (≈ 1.93 µM) | – | – | – | – | > 256 µg/mL | 256 µg/mL (≈ 495 µM) | – | 128 µg/mL (≈ 247 µM) | – | – | 256 µg/mL | 128 µg/mL | 1 µg/mL | 128 µg/mL | > 256 µg/mL
CC1(C)S[C@@H]2[C@H](NC(=O)[C@H](C(=O)O)c3ccsc3)C(=O)N2[C@H]1C(=O)O [TICARCILLIN] | > 256 µg/mL | 2 µg/mL (≈ 5.2 µM) | > 256 µg/mL | > 256 µg/mL | > 256 µg/mL | 2 µg/mL | > 256 µg/mL | > 256 µg/mL | > 256 µg/mL | > 256 µg/mL | – | – | – | – | – | – | –
CN(C)c1cc(NC(=O)CNC(C)(C)C)c(O)c2c1C[C@H]1C[C@H]3[C@H](N(C)C)C(O)=C(C(N)=O)C(=O)[C@@]3(O)C(O)=C1C2=O [TIGECYCLINE] | 0.5 µg/mL (≈ 0.854 µM) | 0.5 µg/mL (≈ 0.854 µM) | – | – | – | – | 1.5 µg/mL (≈ 2.56 µM) | 2 µg/mL (≈ 3.41 µM) | – | 0.5 µg/mL (≈ 0.854 µM) | – | – | – | – | – | – | –
